Data published in ChEMBL document CHEMBL1137135 (Bioorg Med Chem Lett, 2004).

Columns and labels:
[1] = In vitro inhibitory activity against Factor Xa
Rattus norvegicus = species on record: Rattus norvegicus; test: In vitro anticoagulant activity of compound was determined in rat; assay type: functional
[2] = Binding affinity of compound towards Factor Xa
[3] = Bioavailability in rat; assay type: ADME, organism-based; conditions: in vivo
[4] = Half-life of compound was determined in rat; assay type: ADME; conditions: in vivo
[5] = Plasma clearance of compound was determined in rat; assay type: ADME, organism-based
[6] = Vz of compound was determined in rat; assay type: ADME, organism-based; conditions: in vivo, read-out: Vz

| SMILES | IC50 [1] [nM] | TG 2X lag (Rattus norvegicus) [µM] | Ki [2] [nM] | bioavailability [3] [%] | half-life [4] [h] | clearance [5] [mL/min/kg] | Vd [6] [L/kg] | 2X PT (Rattus norvegicus) [µM] |
| --- | --- | --- | --- | --- | --- | --- | --- | --- |
| COCCN(C)Cc1ccccc1-c1ccc(C(=O)N[C@H](CC(=O)Nc2ccc(Br)cn2)C(=O)N2CCCCC2)cc1 | 1.3 | – | – | – | – | – | – | – |
| NS(=O)(=O)c1ccccc1-c1ccc(C(=O)NCCC(=O)Nc2ccc(Br)cn2)cc1 | 12 | 14 | 7.55 | 2.67 | 1.77 | 35 | 5.4 | – |
| NS(=O)(=O)c1ccccc1-c1ccc(C(=O)NCCNC(=O)c2cccc(Cl)c2)cc1 | 1500 | – | – | – | – | – | – | – |
| NS(=O)(=O)c1ccccc1-c1ccc(C(=O)NCCNC(=O)c2ccc(Br)cc2)cc1 | 960 | – | – | – | – | – | – | – |
| NS(=O)(=O)c1ccccc1-c1ccc(C(=O)NC(CC(=O)Nc2ccc(Br)cn2)C(=O)O)cc1 (centres undefined) | 4.37 | – | 1.72 | 4 | 1 | 6.7 | 0.6 | 74 |
| NS(=O)(=O)c1ccccc1-c1ccc(C(=O)NCCNC(=O)c2ccccc2)cc1 | > 10000 | – | – | – | – | – | – | – |
| CN(C)Cc1ccccc1-c1ccc(C(=O)N[C@H](CC(=O)Nc2ccc(Cl)cn2)C(=O)N2CCCCC2)cc1 | 1.7 | 1 | 0.4 | 25.9 | 1.18 | 178 | 14 | 1.74 |
| NS(=O)(=O)c1ccccc1-c1ccc(NC(=O)CCNC(=O)c2ccc(Cl)s2)cc1 | 130 | – | – | – | – | – | – | – |
| NS(=O)(=O)c1ccccc1-c1ccc(C(=O)NC(CC(=O)Nc2ccc(Br)cn2)C(=O)N2CCCCC2)cc1 (centres undefined) | 7.6 | 4.6 | 1.36 | 2.7 | 1.35 | 50.6 | 5.9 | 7 |
| CN(C)Cc1ccccc1-c1ccc(C(=O)N[C@@H](CC(=O)Nc2ccc(Cl)cn2)C(=O)N2CCCCC2)cc1 | 2.9 | 0.96 | 1 | 7.9 | 6.1 | 124 | 59.2 | 3.6 |
| NS(=O)(=O)c1ccccc1-c1ccc(C(=O)NCCNC(=O)c2ccc(Cl)s2)cc1 | 5.7 | – | – | – | – | – | – | – |
| O=C(C[C@@H](NC(=O)c1ccc(-c2ccccc2CN2CCOCC2)cc1)C(=O)N1CCCCC1)Nc1ccc(Br)cn1 | 1.1 | – | – | – | – | – | – | – |
| COCCN(C)Cc1ccccc1-c1ccc(C(=O)N[C@H](CC(=O)Nc2ccc(Cl)cn2)C(=O)N2CCCCC2)cc1 | 4.8 | – | – | – | – | – | – | – |
| COCCN(C)Cc1ccccc1-c1ccc(C(=O)N[C@@H](CC(=O)Nc2ccc(Br)cn2)C(=O)N2CCCCC2)cc1 | 940 | – | – | – | – | – | – | – |
| COc1ccc(C(=O)NCCNC(=O)c2ccc(-c3ccccc3S(N)(=O)=O)cc2)cc1 | 2600 | – | – | – | – | – | – | – |
| CN(C)Cc1ccccc1-c1ccc(C(=O)N[C@H](CC(=O)Nc2ccc(Br)cn2)C(=O)N2CCCCC2)cc1 | 0.65 | 0.42 | 0.14 | – | – | – | – | 1.98 |
| NS(=O)(=O)c1ccccc1-c1ccc(NC(=O)/C=C/C(=O)Nc2ccc(Cl)cc2)cc1 (stereo in doubt; cis) | 67 | – | – | – | – | – | – | – |
| NS(=O)(=O)c1ccccc1-c1ccc(NC(=O)/C=C/C(=O)Nc2ccc(Cl)cc2)cc1 (stereo in doubt; trans) | > 10000 | – | – | – | – | – | – | – |
